Experimental data reported in ChEMBL document CHEMBL1125524, “Adenosine A1 antagonists. 2. Structure-activity relationships on diuretic activities and protective effects against acute renal failure” (J Med Chem, 1992).

Assays:
[1] = tested on: Rattus norvegicus; test: Effect on urinary excretion potassium and sodium after oral administration of 1.6 mg/kg to rats(potassium and sodium excretion in control rat is 0.169+/-0.012); type: functional, Urine
[2] = tested on: Rattus norvegicus; test: Percent inhibition of Urea nitrogen by the compound given as ratio of UN value in treated to vehicle treated ones after intraperitoneal administration of 1 mg/kg of compound to rats(vehicle 151.5+/-7.4); type: functional; conditions: ip
[3] = molecular target: Adenosine A2 receptor (Rattus norvegicus, UniProt P29276+P30543)
[4] = tested on: Rattus norvegicus; test: Urea nitrogen concentration measured after intraperitoneal administration of 0.01 mg/kg of compound to rats(vehicle 130.6+/-4.12); type: functional
[5] = tested on: Rattus norvegicus; test: Urea nitrogen concentration measured after intraperitoneal administration of 1 mg/kg of compound to rats(vehicle 151.5+/-7.4); type: functional
[6] = tested on: Rattus norvegicus; test: Percent inhibition of serum creatinine by the compound given as ratio of Cr value in treated to vehicle treated ones after intraperitoneal administration of 0.1 mg/kg of compound to rats(vehicle 3.92+/-0.23); type: functional; conditions: ip
[7] = tested on: Rattus norvegicus; test: Ratio of sodium ion/potassium ion concentration in treated rats to that in control rats, at a peroral dose of 1.6 mg/Kg; type: functional
[8] = tested on: Rattus norvegicus; test: Serum creatinine concentration measured after intraperitoneal administration of 0.1 mg/kg of compound to rats(vehicle 3.92+/-0.23); type: functional
[9] = tested on: Rattus norvegicus; test: Ratio of urinary excretion value (Na+ concentration) in treated rats to that in control rats, at a peroral dose of 1.6 mg/Kg; type: functional, Urine
[10] = tested on: Rattus norvegicus; test: Oral diuretic activity was measured after oral administration of 1.6 mg/kg to rats(control volume is 0.97+/-0.05); type: functional, Urine
[11] = tested on: Rattus norvegicus; test: Serum creatinine concentration measured after intraperitoneal administration of 1 mg/kg of compound to rats(vehicle 4.82+/-0.17); type: functional
[12] = tested on: Rattus norvegicus; test: Serum creatinine concentration measured after intraperitoneal administration of 0.01 mg/kg of compound to rats(vehicle 4.50+/-0.24); type: functional
[13] = tested on: Rattus norvegicus; test: Ratio of sodium ion/potassium ion concentration in treated rats to that in control rats, at a peroral dose of 0.4 mg/Kg; type: functional
[14] = tested on: Rattus norvegicus; test: Ratio of urinary excretion value (urinary volume) in treated rats to that in control rats, at a peroral dose of 0.4 mg/Kg; type: functional, Urine
[15] = tested on: Rattus norvegicus; test: Percent inhibition of Urea nitrogen by the compound given as ratio of UN value in treated to vehicle treated ones after intraperitoneal administration of 0.1 mg/kg of compound to rats(vehicle 141.3+/-8.3); type: functional; conditions: ip
[16] = tested on: Rattus norvegicus; test: Urea nitrogen concentration measured after intraperitoneal administration of 0.1 mg/kg of compound to rats(vehicle 141.3+/-8.3); type: functional
[17] = tested on: Rattus norvegicus; test: Effect on urinary excretion potassium and sodium after oral administration of 0.4 mg/kg to rats(potassium and sodium excretion in control rat is 0.267+/-0.044); type: functional, Urine
[18] = tested on: Rattus norvegicus; test: Percent inhibition of serum creatinine by the compound given as ratio of Cr value in treated to vehicle treated ones after intraperitoneal administration of 1 mg/kg of compound to rats(vehicle 4.82+/-0.17); type: functional; conditions: ip
[19] = tested on: Rattus norvegicus; test: Oral diuretic activity was measured after oral administration of 0.4 mg/kg to rats(control volume is 1.72+/-0.31); type: functional, Urine
[20] = tested on: Rattus norvegicus; test: Percent inhibition of Urea nitrogen by the compound given as ratio of UN value in treated to vehicle treated ones after intraperitoneal administration of 0.01 mg/kg of compound to rats(vehicle 130.6+/-4.12); type: functional; conditions: ip
[21] = tested on: Rattus norvegicus; test: Percent inhibition of serum creatinine by the compound given as ratio of Cr value in treated to vehicle treated ones after intraperitoneal administration of 0.01 mg/kg of compound to rats(vehicle 4.50+/-0.24); type: functional; conditions: ip
[22] = tested on: Rattus norvegicus; test: Ratio of urinary excretion value (urinary volume) in treated rats to that in control rats, at a peroral dose of 1.6 mg/Kg; type: functional, Urine
[23] = tested on: Rattus norvegicus; test: Ratio of urinary excretion value (Na+ concentration) in treated rats to that in control rats, at a peroral dose of 0.4 mg/Kg; type: functional, Urine
[24] = tested on: Rattus norvegicus; test: Effect on urinary excretion potassium and sodium after oral administration of 1.6 mg/kg to rats(potassium and sodium excretion in control rat is 0.079+/-0.007); type: functional, Urine
[25] = tested on: Rattus norvegicus; test: Serum creatinine concentration measured after intraperitoneal administration of 10 mg/kg of compound to rats(vehicle 5.43+/-0.11); type: functional
[26] = tested on: Rattus norvegicus; test: Ratio of urinary excretion value (Na+ concentration) in treated rats to that in control rats, at a peroral dose of 6.25 mg/Kg; type: functional, Urine
[27] = tested on: Rattus norvegicus; test: Ratio of urinary excretion value (urinary volume) in treated rats to that in control rats, at a peroral dose of 25 mg/Kg; type: functional, Urine
[28] = tested on: Rattus norvegicus; test: Ratio of urinary excretion value (Na+ concentration) in treated rats to that in control rats, at a peroral dose of 25 mg/Kg; type: functional, Urine
[29] = tested on: Rattus norvegicus; test: Oral diuretic activity was measured after oral administration of 1.6 mg/kg to rats(control volume is 0.69+/-0.03); type: functional, Urine
[30] = tested on: Rattus norvegicus; test: Urea nitrogen concentration measured after intraperitoneal administration of 10 mg/kg of compound to rats(vehicle 182.5+/-3.4); type: functional
[31] = tested on: Rattus norvegicus; test: Percent inhibition of Urea nitrogen by the compound given as ratio of UN value in treated to vehicle treated ones after intraperitoneal administration of 10 mg/kg of compound to rats(vehicle 182.5+/-3.4); type: functional; conditions: ip
[32] = tested on: Rattus norvegicus; test: Effect on urinary excretion potassium and sodium after oral administration of 25 mg/kg to rats(potassium and sodium excretion in control rat is 0.193+/-0.016); type: functional, Urine
[33] = tested on: Rattus norvegicus; test: Oral diuretic activity was measured after oral administration of 25 mg/kg to rats(control volume is 0.91+/-0.08); type: functional, Urine
[34] = tested on: Rattus norvegicus; test: Percent inhibition of serum creatinine by the compound given as ratio of Cr value in treated to vehicle treated ones after intraperitoneal administration of 10 mg/kg of compound to rats(vehicle 182.5+/-3.4); type: functional; conditions: ip
[35] = tested on: Rattus norvegicus; test: Ratio of sodium ion/potassium ion concentration in treated rats to that in control rats, at a peroral dose of 25 mg/Kg; type: functional
[36] = tested on: Rattus norvegicus; test: Ratio of urinary excretion value (urinary volume) in treated rats to that in control rats, at a peroral dose of 6.25 mg/Kg; type: functional, Urine

## CC(C)Cn1c(=O)n(C)c(=O)c2[nH]c(C34CC5CC(CC3C5)C4)nc21
[1]
  Na: 0.409 m equiv 6hr-1 100g-1
[2]
  inhibition in vivo at 1 mg/kg: 51%
[3]
  Ki: 850 nM
[4]
  UN: 115.5 mg/dL
[5]
  UN: 74 mg/dL
[6]
  inhibition in vivo at 0.1 mg/kg: 48%
[7]
  Na+/K+: 1.73
[8]
  Cr: 2.04 mg/dL
[9]
  T/C: 2.43
[10]
  Urine volume: 2.43 ml 6hr-1 100g-1
[11]
  Cr: 2.76 mg/dL
[12]
  Cr: 3.38 mg/dL
[13]
  Na+/K+: 1.37
[14]
  T/C: 1.4
[15]
  inhibition in vivo at 0.1 mg/kg: 50%
[16]
  UN: 70.9 mg/dL
[17]
  Na: 0.367 m equiv 6hr-1 100g-1
[18]
  inhibition in vivo at 1 mg/kg: 42%
[19]
  Urine volume: 2.41 ml 6hr-1 100g-1
[20]
  inhibition in vivo at 0.01 mg/kg: 12%
[21]
  inhibition in vivo at 0.01 mg/kg: 25%
[22]
  T/C: 2.51
[23]
  T/C: 1.38

## Cn1c(=O)c2nc[nH]c2n(C)c1=O.O [THEOPHYLLINE]
[24]
  Na: 0.09 m equiv 6hr-1 100g-1
[25]
  Cr: 5.32 mg/dL
[26]
  T/C: 1.52
[27]
  T/C: 1.34
[28]
  T/C: 2.16
[29]
  Urine volume: 0.71 ml 6hr-1 100g-1
[7]
  Na+/K+: 1.06
[30]
  UN: 174 mg/dL
[9]
  T/C: 1.14
[31]
  inhibition in vivo at 10 mg/kg: 5%
[32]
  Na: 0.417 m equiv 6hr-1 100g-1
[33]
  Urine volume: 1.22 ml 6hr-1 100g-1
[34]
  inhibition in vivo at 10 mg/kg: 2%
[35]
  Na+/K+: 1.08
[36]
  T/C: 1.42
[22]
  T/C: 1.03
